Paper PMC4854315, “Discovery of a novel allosteric inhibitor-binding site in ERK5: comparison with the canonical kinase hinge ATP-binding site” (Acta Crystallographica. Section D, Structural Biology, 2016)
Like-named read-outs stand apart in the source and are kept apart here.

What was measured:
recombinant human ERK5 = molecular target: T1, recombinant human ERK5 (Homo sapiens, UniProt Q13164); assay: TR-FRET (LANCE Ultra) biochemical assay of ERK5 kinase activity
T1 construct: Catalytically active kinase domain of recombinant human ERK5 enzyme was purchased from Carna Biosciences; purchased Carna Biosciences
Description: Catalytically active kinase domain of recombinant human ERK5 enzyme was purchased from Carna Biosciences. […] The inhibitory potency of compounds against ERK5 was evaluated using the LANCE Ultra technology from PerkinElmer according to the manufacturer’s instructions. Briefly, 3 µl of different concentrations of ATP and 100 nM ULight-eIF4E-binding protein 1 (Thr37/46) peptide (Perkin-Elmer catalogue No. TRF0128) were incubated in the presence of serially diluted compound or DMSO control at room temperature in 384-well Greiner white polystyrene assay plates. The reaction was initiated by the addition of 3 µl of 10 nM kinase. The assay buffer consisted of 1 mM DTT, 10 mM MgCl2, 1 mM EGTA, 0.01%(v/v) Tween 20 in 50 mM HEPES pH 7.5. After 60 min incubation, the reaction was stopped by the addition of 6 µl stop/detection reagent mixture consisting of 20 mM EDTA and 4 nM Eu-anti-phospho-eIF4E-binding protein 1 (Thr37/46) antibody (PerkinElmer catalogue No. TRF0216) diluted in detection buffer. The plates were incubated for 1 h before the fluorescence was measured at 615 and 665 nm with an excitation wavelength of 320 nm using an EnVision Multilabel Reader from Perkin-Elmer in time-resolved fluorescence resonance energy transfer (TR-FRET) mode. The calculated signal ratio at 665/615 nm is proportional to the kinase activity. The concentration of compound producing 50% inhibition of the kinase activity (IC50) was calculated by using GraphPad Prism to fit the data to a symmetrical sigmoidal curve.

[1] = test system: 225 kinases in the ThermoFisher standard kinase panel; assay: Kinase-panel activity screen, whole panel; format: biochemical; settings: 10 µM compound; for Kinase selectivity profile in words: panel of 225 kinases
Description: Compounds 2, 3 and 5 were tested for activity against the 225 kinases in the ThermoFisher standard kinase panel. The standard Z′-LYTE assay protocol (ThermoFisher) was used to measure the percentage inhibition at 10 µM compound concentration (details are provided in the supporting information).

ERK5 signalling = test system: ERK5 signalling; design: method as in Gavine et al., 2015; settings: HEK293 cell line stably co-expressing MEK5CA and ERK5; ref Gavine et al., 2015; cited from earlier work
[2] = TR-FRET enzymatic assay, phosphorylated ERK5, read-out: ERK5 IC50

T1 sequence (Q13164 55-347 limits assumed): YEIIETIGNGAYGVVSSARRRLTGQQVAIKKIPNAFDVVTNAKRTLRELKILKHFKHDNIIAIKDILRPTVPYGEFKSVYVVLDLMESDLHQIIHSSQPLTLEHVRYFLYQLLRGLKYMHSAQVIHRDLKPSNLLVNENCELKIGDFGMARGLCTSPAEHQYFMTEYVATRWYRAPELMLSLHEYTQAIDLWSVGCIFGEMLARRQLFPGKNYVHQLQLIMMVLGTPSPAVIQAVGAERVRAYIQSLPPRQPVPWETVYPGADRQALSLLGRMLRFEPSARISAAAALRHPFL

Compound	IC50 (recombinant human ERK5; [2])	Kinase selectivity profile in words [1]	Mode of ERK5 inhibition with respect to ATP (recombinant human ERK5; ATP-competition study, IC50 curves at different ATP concentrations)	IC50 (recombinant human ERK5; ERK5 IC50 at [ATP] 20 µM, [ATP] 20 µM)	IC50 (recombinant human ERK5; ERK5 IC50 at [ATP] 40 µM, [ATP] 40 µM)	IC50 (recombinant human ERK5; ERK5 IC50 at [ATP] 60 µM, [ATP] 60 µM)	IC50 (recombinant human ERK5; ERK5 IC50 at [ATP] 200 µM, [ATP] 200 µM)	IC50 (recombinant human ERK5; ERK5 IC50 at [ATP] 1000 µM, [ATP] 1000 µM)	IC50 (recombinant human ERK5; ERK5 IC50 at [ATP] 2000 µM, [ATP] 2000 µM)	IC50 (recombinant human ERK5; [ATP] 80 µM, read-out: ERK5 IC50 at [ATP] 80 µM)	IC50 (recombinant human ERK5; [ATP] 500 µM, read-out: ERK5 IC50 at [ATP] 500 µM)	Number of kinases with significant activity (greater than 80% inhibition) out of the 225 tested [1]	Block of downstream ERK5 signalling (ERK5 signalling)
Cc1ncc(-c2nc(Nc3ccc(C(=O)NCCN4CCCCC4)cc3)ncc2F)n1C(C)C [Compound 3]	0.042 µM	most promiscuous											
Cc1cc(Nc2nc(N)nn2C(=O)NC(C)C)ccc1Cl [Compound 5]	2.3 µM	most selective	ATP-competitive	2.3 µM	2.9 µM	3.1 µM	4.1 µM	9.9 µM	14.8 µM	3.4 µM	6.3 µM	five	
XMD8-92 [Compound 2, reference compound]													able to block downstream ERK5 signalling
